IC50 data for 34 compounds are collected here from patent US20160083391A1, “TRICYCLIC PIPERAZINE DERIVATIVE” (Sunovion Pharmaceuticals Inc., priority 2014, published 2016).

The experiment concerns PDE1. The experiment in a line: In vitro HTRF PDE1 inhibition assay. It counts as biochemical. The note with it: HTRF cGMP assay, 100 nM cyclic GMP, PDE (1A3, 1B or 1C) with calmodulin, 45 minutes at 37° C.; isoform of the tabulated values not stated. A digest of the protocol:
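HTRF cGMP competition assay: PDE1A3, 1B or 1C with calmodulin acting on 100 nM cGMP in 1% DMSO, pH 7.4 buffer with Ca2+ and Mg2+, 45 min at 37 °C. Remaining cGMP detected with d2-cGMP and anti-cGMP cryptate (665/615 nm); IC50 reported as banded categories.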
Background: Time-resolved FRET reads energy transfer from a long-lived donor to a nearby acceptor.
As a reminder, the IC50 is the point on the concentration scale where inhibition reaches its midpoint. High values mean weaker potency, low ones greater potency. `CC(C)c1n[nH]c2c(=O)n3c(nc12)C(C)N(C)CC3` (racemic) [Compound I-38, (±)-3-Isopropyl-5,6-dimethyl-5,6,7,8-tetrahydropyrazino[1,2-a]pyrazolo[4,3-d]pyrimidin-10(1H)-one] had an IC50 of more than 10 µM.

`Cc1ncc(CN2CCn3c(nn4c(C5CCCC5)ncc4c3=O)C2)cn1` [Compound I-197, 3-Cyclopentyl-7-((2-methylpyrimidin-5-yl)methyl)-8,9-dihydro-6H-imidazo[5,1-f]pyrazino[2,1-c][1,2,4]triazin-11(7H)-one] had an IC50 of 1 to 10 µM.

The compound `O=c1c2cnc(C3CCCC3)n2nc2n1CCN(Cc1cncnc1)C2` [Compound I-193, 3-Cyclopentyl-7-(pyrimidin-5-ylmethyl)-8,9-dihydro-6H-imidazo[5,1-f]pyrazino[2,1-c][1,2,4]triazin-11(7H)-one] had an IC50 of 1 to 10 µM.

With `COc1ccc(CN2CCn3c(nc4c(cnn4C4CCOCC4)c3=O)C2)cc1` [Compound I-210, 8-(4-Methoxybenzyl)-1-(tetrahydro-2H-pyran-4-yl)-6,7,8,9-tetrahydropyrazino[1,2-a]pyrazolo[3,4-d]pyrimidin-4(1H)-one], the IC50 is 1 to 10 µM.

`O=c1c2cnn(C3CCOC3)c2nc2n1CCN(Cc1ccc(Cl)cc1)C2` (racemic) [Compound I-220, (±)-8-(4-Chlorobenzyl)-1-(tetrahydrofuran-3-yl)-6,7,8,9-tetrahydropyrazino[1,2-a]pyrazolo[3,4-d]pyrimidin-4(1H)-one] showed an IC50 of 1 to 10 µM.

On to `CC(C)c1n[nH]c2c(=O)n3c(nc12)C(C)NCC3` (racemic) [Compound I-11, (±)-3-Isopropyl-5-methyl-5,6,7,8-tetrahydropyrazino[1,2-a]pyrazolo[4,3-d]pyrimidin-10(1H)-one], for which the IC50 is more than 10 µM.

`Cc1cnc(CN2CCn3c(nn4c(C5CCCC5)ncc4c3=O)C2)cn1` [Compound I-209, 3-Cyclopentyl-7-((5-methylpyrazin-2-yl)methyl)-8,9-dihydro-6H-imidazo[5,1-f]pyrazino[2,1-c][1,2,4]triazin-11(7H)-one] came in with an IC50 of less than 1 µM.

With `COc1ccc(CN2Cc3nc4c(cnn4C4CCCC4)c(=O)n3CC2C)cc1` (racemic) [Compound I-120, (±)-1-Cyclopentyl-8-(4-methoxybenzyl)-7-methyl-6,7,8,9-tetrahydropyrazino[1,2-a]pyrazolo[3,4-d]pyrimidin-4(1H)-one], the IC50 is less than 1 µM.

Compound `O=c1c2cnn(C3CC3)c2nc2n1CCN(c1ccc(Cl)cc1)C2` [Compound I-248, 8-(4-Chlorophenyl)-1-cyclopropyl-6,7,8,9-tetrahydropyrazino[1,2-a]pyrazolo[3,4-d]pyrimidin-4(1H)-one] displayed an IC50 of less than 1 µM.

`CC(C)n1ncc2c(=O)n3c(nc21)CN(C)C(Cc1ccccc1)C3` (racemic) [Compound I-110, (±)-7-Benzyl-1-isopropyl-8-methyl-6,7,8,9-tetrahydropyrazino[1,2-a]pyrazolo[3,4-d]pyrimidin-4(1H)-one] displayed an IC50 of more than 10 µM.

`CC(C)n1ncc2c(=O)n3c(nc21)CN(Cc1ccc(F)cc1)CC3` [Compound I-138, 8-(4-Fluorobenzyl)-1-isopropyl-6,7,8,9-tetrahydropyrazino[1,2-a]pyrazolo[3,4-d]pyrimidin-4(1H)-one] returned a concentration for half-maximal inhibition (IC50) of more than 10 µM.

For `CC(C)Cn1ncc2c(=O)n3c(nc21)CN(Cc1ccccc1Cl)CC3` [Compound I-68, 8-(2-Chlorobenzyl)-1-isobutyl-6,7,8,9-tetrahydropyrazino[1,2-a]pyrazolo[3,4-d]pyrimidin-4(1H)-one], the IC50 was 1 to 10 µM.

As to `CN1CCn2c(nc3c(cnn3C)c2=O)C1Cc1ccccc1` (racemic) [Compound I-24, (±)-9-Benzyl-1,8-dimethyl-6,7,8,9-tetrahydropyrazino[1,2-a]pyrazolo[3,4-d]pyrimidin-4(1H)-one], the IC50 was more than 10 µM.

Turning to `O=c1c2cnn(C3CCCC3)c2nc2n1CCN(Cc1cncnc1)C2` [Compound I-191, 1-Cyclopentyl-8-(pyrimidin-5-ylmethyl)-6,7,8,9-tetrahydropyrazino[1,2-a]pyrazolo[3,4-d]pyrimidin-4(1H)-one], the IC50 lay in the range of 1 to 10 µM.

For `O=c1c2cnc(C3CCCC3)n2nc2n1CCN(Cc1cnccn1)C2` [Compound I-205, 3-Cyclopentyl-7-(pyrazin-2-ylmethyl)-8,9-dihydro-6H-imidazo[5,1-f]pyrazino[2,1-c][1,2,4]triazin-11(7H)-one], the IC50 is less than 1 µM.

`CC1Cn2c(nc3c(cnn3C(C)C)c2=O)CN1c1ccc(Cl)cc1` (racemic) [Compound I-150, (±)-8-(4-Chlorophenyl)-1-isopropyl-7-methyl-6,7,8,9-tetrahydropyrazino[1,2-a]pyrazolo[3,4-d]pyrimidin-4(1H)-one] registered an IC50 of 1 to 10 µM.

For the compound `Cc1cnc(CN2CCn3c(nc4c(cnn4C4CCCC4)c3=O)C2)cn1` [Compound I-207, 1-Cyclopentyl-8-((5-methylpyrazin-2-yl)methyl)-6,7,8,9-tetrahydropyrazino[1,2-a]pyrazolo[3,4-d]pyrimidin-4(1H)-one], the IC50 was 1 to 10 µM.

For the compound `CC(C)c1nnc2c(=O)n3c(nn12)CN(Cc1ccccn1)CC3` [Compound I-226, 3-Isopropyl-7-(pyridin-2-ylmethyl)-8,9-dihydro-6H-pyrazino[2,1-c][1,2,4]triazolo[3,4-f][1,2,4]triazin-11(7H)-one], the IC50 was more than 10 µM.

As to `CC(C)n1ncc2c(=O)n3c(nc21)CN(Cc1ccc(Cl)c(Cl)c1)CC3` [Compound I-169, 8-(3,4-Dichlorobenzyl)-1-isopropyl-6,7,8,9-tetrahydropyrazino[1,2-a]pyrazolo[3,4-d]pyrimidin-4(1H)-one], the IC50 is less than 1 µM.

On to `COc1cccc(N2CCn3c(nc4c(cnn4C(C)C)c3=O)C2)c1` [Compound I-97, 1-Isopropyl-8-(3-methoxyphenyl)-6,7,8,9-tetrahydropyrazino[1,2-a]pyrazolo[3,4-d]pyrimidin-4(1H)-one], for which the IC50 was less than 1 µM.

The compound `COc1ccc(CN2CCn3c(nc4c(cnn4C4CCCC4)c3=O)C2)cc1` [Compound I-84, 1-Cyclopentyl-8-(4-methoxybenzyl)-6,7,8,9-tetrahydropyrazino[1,2-a]pyrazolo[3,4-d]pyrimidin-4(1H)-one] gave an IC50 of less than 1 µM.

`O=C(c1ccc(Cl)cc1)N1CCn2c(nc3c(cnn3C3CCCC3)c2=O)C1` [Compound I-115, 8-(4-Chlorobenzoyl)-1-cyclopentyl-6,7,8,9-tetrahydropyrazino[1,2-a]pyrazolo[3,4-d]pyrimidin-4(1H)-one] came in with an IC50 of 1 to 10 µM.

The compound `CN1CCn2c(nc3c(cnn3-c3ccccc3)c2=O)C1Cc1ccccc1` (racemic) [Compound I-26, (±)-9-Benzyl-8-methyl-1-phenyl-6,7,8,9-tetrahydropyrazino[1,2-a]pyrazolo[3,4-d]pyrimidin-4(1H)-one] showed an IC50 of more than 10 µM.

Take `CCCn1ncc2c(=O)n3c(nc21)CN(Cc1ccc(Cl)c(Cl)c1)CC3` [Compound I-165, 8-(3,4-Dichlorobenzyl)-1-propyl-6,7,8,9-tetrahydropyrazino[1,2-a]pyrazolo[3,4-d]pyrimidin-4(1H)-one]: the IC50 is 1 to 10 µM.

`CC(C)c1ncc2c(=O)n3c(nn12)CN(Cc1cnccn1)CC3` [Compound I-204, 3-Isopropyl-7-(pyrazin-2-ylmethyl)-8,9-dihydro-6H-imidazo[5,1-f]pyrazino[2,1-c][1,2,4]triazin-11(7H)-one] came in with an IC50 of 1 to 10 µM.

Turning to `O=c1c2cnn(C3CCCC3)c2nc2n1CCN(c1ccc(Cl)cc1)C2` [Compound I-93, 8-(4-Chlorophenyl)-1-cyclopentyl-6,7,8,9-tetrahydropyrazino[1,2-a]pyrazolo[3,4-d]pyrimidin-4(1H)-one], the IC50 was less than 1 µM.

In turn, `CC1c2nc3c(cnn3C)c(=O)n2CCN1Cc1ccccc1` (racemic) [Compound I-31, (±)-8-Benzyl-1,9-dimethyl-6,7,8,9-tetrahydropyrazino[1,2-a]pyrazolo[3,4-d]pyrimidin-4(1H)-one] displayed an IC50 of more than 10 µM.

Turning to `Cc1cnc(CN2CCn3c(nc4c(cnn4C4CCCC4)c3=O)C2)nc1` [Compound I-199, 1-Cyclopentyl-8-((5-methylpyrimidin-2-yl)methyl)-6,7,8,9-tetrahydropyrazino[1,2-a]pyrazolo[3,4-d]pyrimidin-4(1H)-one], the IC50 was in the range of 1 to 10 µM.

In the case of `CC(C)n1ncc2c(=O)n3c(nc21)C(Cc1ccccc1)N(Cc1ccccc1)CC3` (racemic) [Compound I-36, (±)-8,9-Dibenzyl-1-Isopropyl-6,7,8,9-tetrahydropyrazino[1,2-a]pyrazolo[3,4-d]pyrimidin-4(1H)-one], the IC50 was more than 10 µM.

`Cc1ccc(CN2CCn3c(nc4c(cnn4C(C)C)c3=O)C2)cn1` [Compound I-186, 1-Isopropyl-8-((6-methylpyridin-3-yl)methyl)-6,7,8,9-tetrahydropyrazino[1,2-a]pyrazolo[3,4-d]pyrimidin-4(1H)-one] yielded an IC50 of 1 to 10 µM.

For the compound `Cn1ncc2c(=O)n3c(nc21)C(Cc1ccccc1)NCC3` (racemic) [Compound I-7, (±)-9-Benzyl-1-methyl-6,7,8,9-tetrahydropyrazino[1,2-a]pyrazolo[3,4-d]pyrimidin-4(1H)-one], the IC50 is more than 10 µM.

`CC(C)n1ncc2c(=O)n3c(nc21)CN(Cc1cncnc1)CC3` [Compound I-190, 1-Isopropyl-8-(pyrimidin-5-ylmethyl)-6,7,8,9-tetrahydropyrazino[1,2-a]pyrazolo[3,4-d]pyrimidin-4(1H)-one] gave an IC50 of more than 10 µM.

`O=c1c2cnc(C3CCOC3)n2nc2n1CCN(Cc1ccccc1)C2` (racemic) [Compound I-231, (±)-7-Benzyl-3-(tetrahydrofuran-3-yl)-8,9-dihydro-6H-imidazo[5,1-f]pyrazino[2,1-c][1,2,4]triazin-11(7H)-one]: the IC50 was less than 1 µM.

The compound `CC(C)n1ncc2c(=O)n3c(nc21)CN(Cc1ccccc1-c1ccccc1)CC3` [Compound I-64, 8-([1,1′-Biphenyl]-2-ylmethyl)-1-isopropyl-6,7,8,9-tetrahydropyrazino[1,2-a]pyrazolo[3,4-d]pyrimidin-4(1H)-one] came in with an IC50 of 1 to 10 µM.
